The record followed here is US8221762B2, “Naturally processed measles virus peptides from class II HLA molecules” (priority 2004, dated 2012).

Assay [1] has as its system PBMC from subjects previously immunized with MMR-II vaccine. Description: T cell proliferation assay ([3H]-thymidine, 3 days, SI cut point 3.0), Example 1. Format: cell-based, human. From the text: Study participants included ninety-five healthy residents of Olmsted County, Minn., aged 11 to 18 years. […] Mononuclear leukocytes were isolated by Ficoll-Hypaque (Amersham) density gradient centrifugation.
For descriptive analyses, we used medians and ranges for continuous variables and frequencies for categorical variables. We compared cpm for MV-stimulated, MV-P1-stimulated and MV-P2-stimulated cells with unstimulated cells using Wilcoxon signed rank tests. Associations between the continuously distributed stimulation indices for MV-P1, MV-P2 peptides, and MV were determined using Spearman rank correlation coefficients. Stimulation indices were subsequently dichotomized into positive or negative using a cut point of 3.0. We then compared MV positivity with MV-P1 and MV-P2 positivity using estimates of sensitivity.

Assay [2] has as its system PBMC of subjects previously immunized with MMR-II vaccine. Description: T cell proliferation assay ([3H]-thymidine, 4 days, SI>2 positive), Example 3. The note with it: for subjects with stimulation index greater than 2 (positive lymphoproliferative response) / stimulation index, median / stimulation index, range: 131 subjects (MV-P2 130, MV-F 43); for stimulation index, median / stimulation index, range: peptides 20 μg/ml, MV 50 pfu/ml, 4 days.

Assay [3] has the same test system. Description: IFN-γ supernatant cytokine response (ELISA) to measles virus and synthetic measles peptides. The note with it: for Median secretion value IFN-γ: stimulated minus control cells. The format is cell-based, human. How it is done: (§1) To evaluate the immunogenicity of measles-derived peptides, 281 of these subjects (age 12 to 18 years) were studied.
(§2) Cryopreserved PBMC were used to measure cytokine responses to measles-derived peptides. We thawed cryopreserved PBMC at a concentration of 1×10^7 cells/mL using standard protocol. The vials were rapidly thawed in a 37° C. water bath and then washed twice with 10× volume of complete RPMI 1640 media supplemented with 10% FCS at 700 rpm for 5 minutes. The final cell pellet was resuspended in complete RPMI media containing penicillin-streptomycin (100 U/mL) and supplemented with 5% normal human AB sera (Ervin Sci., Santa Ana, Calif.). For IFN-γ determination, thawed PBMC were cultured at a concentration of 2×10^5 in RPMI containing 5% normal human AB sera with or without measles peptides (10 μg/well) and MV (positive control) at a moi of 0.5 for 6 days. For IL-4 determination in cell culture supernatants, we cultured thawed PBMC at a concentration of 4×10^5 in RPMI media, supplemented with 5% normal human AB sera. Cells were cultured in the presence of 2 μg/mL of IL-4 receptor antibody (R&D Systems, Minneapolis, Minn.) (Ekerfelt, et al., J. Immunol. Methods 260:55-67, 2002) with or without synthetic measles-derived peptides (10 μg/well) and MV (positive control) at a moi of 0.1 for 6 days. Cell culture supernatants were collected in a volume of 150 μl/well for both IFN-γ and IL-4 and were frozen at […] until assayed. The culture supernatants were assayed using a standard ELISA protocol (OptiEtA Human IFN-γ and IL-4, PharMingen, San Diego, Calif.) at a dilution of 1:1 in PBS containing 10% FCS. ELISA plates (Immulon-4, DYNEX Technologies Inc, Chantilly, Va.) were coated with capture IFN-γ or IL-4 mAb and incubated overnight at 4° C. The antibody-coated plates were incubated with diluted supernatant samples for 2 hours at room temperature followed by incubation with biotinylated mouse anti-human IFN-γor IL-4 conjugated to avidin-horseradish peroxidase for 1 hour at room temperature. The absorbance of the product was read using a microplate reader (Molecular Devices, Sunnyvale, Calif.) at 450 nm. The IFN-γ and IL-4 concentration of test samples was calculated by reference to the standard curve. Unstimulated and MV-stimulated secretion measurements for IFN-γ were performed in triplicate, while all other secretion measurements for both IFN-γ and IL-4 were performed in duplicate. Individual-specific values were then summarized by taking means of the duplicate or triplicate values. Mean background levels of IFN-γ and IL-4 cytokine production in cultures not stimulated with measles peptides or MV was subtracted from the mean antigen-induced responses to produce “corrected” secretion values. Negative corrected values indicate that the unstimulated secretion levels were, on average, higher than the stimulated secretion levels.
(§3) Two criteria were established to define positive responses for secreted IFN-γ and IL-4 cytokines using ELISA.
A general note: In an ELISA, binding on a coated surface is turned into a signal by an enzyme label.

The test system is the same in assay [4]. Description: IL-4 supernatant cytokine response (ELISA) to measles virus and synthetic measles peptides. Format: cell-based, human. The following applies: for Median secretion value IL-4: stimulated minus control cells. How it is done:
as §1, §2, §3

The mark [5] stands for this setting: 95 subjects, peptides 20 μg/ml, MV 50 PFU/well.
The mark [6] stands for this setting: 281 subjects, stimulated cells minus unstimulated cells.

Turning to `CC[C@H](C)[C@H](NC(=O)[C@H](CCC(=O)O)NC(=O)CNC(=O)CNC(=O)[C@H](CCC(=O)O)NC(=O)[C@H](C)NC(=O)[C@@H](NC(=O)[C@H](CCC(=O)O)NC(=O)[C@@H](NC(=O)[C@H](CC(=O)O)NC(=O)[C@H](CO)NC(=O)[C@H](C)N)C(C)C)[C@@H](C)O)C(=O)N[C@@H](Cc1c[nH]cn1)C(=O)N[C@@H](CCCCN)C(=O)N[C@@H](CC(C)C)C(=O)N[C@@H](CC(C)C)C(=O)N[C@@H](CCCNC(=N)N)C(=O)N[C@@H](CC(C)C)C(=O)N[C@@H](CCC(N)=O)C(=O)O` [MV-P2], in assay [1] (95 subjects), the “subjects with stimulation index greater than 3.0 (recognized)” value was determined as 5%. Also, in assay [1] (setting [5]), the “stimulation index, median” value came to 1.2 and the “stimulation index, range” value is listed as 0.5-16.2. In addition, the “median cpm value, lymphoproliferative assay” value in assay [1] (95 subjects, peptides 20 μg/ml, live attenuated MV 50 PFU/well, 3 days) was determined as 359 cpm. Moreover, in assay [2], the “subjects with stimulation index greater than 2 (positive lymphoproliferative response)” value stood at 17%; the “stimulation index, median” value was 1.2; the “stimulation index, range” value is reported as 0.4-16.2. Moreover, the “MV-P1 responders who also responded to the peptide” value in assay [2] (among the 52 subjects who responded to the MV-P1 peptide) is recorded as 23%.

Turning to “MV-F: randomly chosen 14 amino acid control peptide of the MV F protein (PLRHQATTASSTKP) [reference compound]”, the “proliferation in immunized healthy subjects” value in assay [1] (irrelevant control peptide, data not shown) is “little or no proliferation”. In addition, in assay [2], the “subjects with stimulation index greater than 2 (positive lymphoproliferative response)” value is recorded as 11%; the “stimulation index, median” value turned out to be 1; the “stimulation index, range” value is on record as 0-3.

SAGKVSSTLASELG [MV-N]: the “IFN-γ % Response (>20 pg/mL)” value in assay [3] (281 subjects, peptides 10 μg/well, MV moi 0.5, 6 days) stood at 15.3%. For the same molecule, the “IFN-γ Median level” value in assay [3] (setting [6]) is 1.9 pg/mL. In addition, the “Median secretion value IFN-γ” value in assay [3] (All other HLA-DRB1 alleles) is 4.1 pg/mL; in assay [3] (HLA-DRB1 allele *0101), -1.8 pg/mL; in assay [3] (HLA-DRB1 allele *0102) it was 7.6 pg/mL; in assay [3] (HLA-DRB1 allele *0103) it was 2.4 pg/mL; in assay [3] (HLA-DRB1 allele *0301), 1.8 pg/mL; in assay [3] (HLA-DRB1 allele *0401) it was -0.7 pg/mL. Further, the “Median secretion value IFN-γ” value in assay [3] (HLA-DRB1 allele *0402) was 10.6 pg/mL; in assay [3] (HLA-DRB1 allele *0404) it was 2.8 pg/mL; in assay [3] (HLA-DRB1 allele *0407), 8.4 pg/mL; in assay [3] (HLA-DRB1 allele *0701), -1.1 pg/mL; in assay [3] (HLA-DRB1 allele *0801), 4.1 pg/mL; in assay [3] (HLA-DRB1 allele *0901), 3.1 pg/mL. The “Median secretion value IFN-γ” value in assay [3] (HLA-DRB1 allele *1001) is -1.8 pg/mL; in assay [3] (HLA-DRB1 allele *1101), -4.4 pg/mL; in assay [3] (HLA-DRB1 allele *1103) it was 3.0 pg/mL; in assay [3] (HLA-DRB1 allele *1104) it was 3.1 pg/mL; in assay [3] (HLA-DRB1 allele *1201), -4.5 pg/mL; in assay [3] (HLA-DRB1 allele *1301), 2.2 pg/mL. For the same molecule, the “Median secretion value IFN-γ” value is -1.9 pg/mL in assay [3] (HLA-DRB1 allele *1302); 13.1 pg/mL in assay [3] (HLA-DRB1 allele *1303); 0.2 pg/mL in assay [3] (HLA-DRB1 allele *1401); 4.1 pg/mL in assay [3] (HLA-DRB1 allele *1501); 9.1 pg/mL in assay [3] (HLA-DRB1 allele *03011); 1.9 pg/mL in assay [3] (Overall (281)). Also, in assay [3] (among the 157 subjects who responded to the MV-P peptide), the “MV-P IFN-γ responders who also produced IFN-γ to the peptide” value was 21%. The “MV IFN-γ responders who also produced IFN-γ to the peptide” value in assay [3] (among the 185 subjects who responded to MV) worked out at 21.1%. In assay [4] (281 subjects, peptides 10 μg/well, MV moi 0.1, 6 days), the “IL-4 % Response (>10 pg/mL)” value was determined as 23.1%. The “IL-4 Median level” value in assay [4] (setting [6]) is 2.8 pg/mL. The “Median secretion value IL-4” value in assay [4] (All other HLA-DRB1 alleles) was -0.5 pg/mL; in assay [4] (HLA-DRB1 allele *0101) it was 4.3 pg/mL; in assay [4] (HLA-DRB1 allele *0102), 4.6 pg/mL; in assay [4] (HLA-DRB1 allele *0103) it was 1.3 pg/mL; in assay [4] (HLA-DRB1 allele *0301) it was 2.8 pg/mL; in assay [4] (HLA-DRB1 allele *0401) it was 4.3 pg/mL. The “Median secretion value IL-4” value in assay [4] (HLA-DRB1 allele *0402) was -1.0 pg/mL; in assay [4] (HLA-DRB1 allele *0404) it was 0.0 pg/mL; in assay [4] (HLA-DRB1 allele *0407), 4.6 pg/mL; in assay [4] (HLA-DRB1 allele *0701) it was 1.7 pg/mL; in assay [4] (HLA-DRB1 allele *0801), 1.7 pg/mL; in assay [4] (HLA-DRB1 allele *0901) it was -1.6 pg/mL. Besides, the “Median secretion value IL-4” value in assay [4] (HLA-DRB1 allele *1001) is recorded as 2.1 pg/mL; in assay [4] (HLA-DRB1 allele *1101), 4.4 pg/mL; in assay [4] (HLA-DRB1 allele *1103), 15.5 pg/mL; in assay [4] (HLA-DRB1 allele *1104), 4.4 pg/mL; in assay [4] (HLA-DRB1 allele *1201) it was 5.4 pg/mL; in assay [4] (HLA-DRB1 allele *1301), 3.6 pg/mL. Besides, the “Median secretion value IL-4” value in assay [4] (HLA-DRB1 allele *1302) was 2.2 pg/mL; in assay [4] (HLA-DRB1 allele *1303), -12.9 pg/mL; in assay [4] (HLA-DRB1 allele *1401), 3.7 pg/mL; in assay [4] (HLA-DRB1 allele *1501), 3.2 pg/mL; in assay [4] (HLA-DRB1 allele *03011) it was 1.7 pg/mL; in assay [4] (Overall (281)) it was 2.8 pg/mL. In assay [4] (among the 54 subjects who responded to the MV-P peptide), the “MV-P IL-4 responders in whom peptide-specific IL-4 responses were also detected” value was “half”. Besides, the “MV IL-4 responders who also responded to the peptide” value in assay [4] (among the 143 subjects with IL-4 production from MV-stimulated PBMC) was 28.7%.
